# Assay results taken from patent US20010020032A1, “COATED PARTICLE FORMULATION” (priority 1996, published 2001).
# Experiments:
# [1] = Polymorphic stability of Form II on solvent contact; assay type: physicochemical; details: contact with methylene chloride
# [2] = Detection of radiolabelled compound in saliva; assay type: in vivo
# Protocol: Olanzapine is effective over a wide dosage range, the actual dose administered being dependent on the condition being treated. For example, in the treatment of adult humans, dosages of from about 0.25 to 50 mg, preferably from 1 to 30 mg, and most preferably 1 to 25 mg per day may be used. A once a day dosage is normally sufficient, although divided doses may be administered. For treatment of central nervous system disorders, a dose range of from 1 to 30 mg, preferably 1 to 25 mg per day is suitable.
# [3] = Stability studies: discoloration on storage or excipient contact; assay type: physicochemical; details: olanzapine substance in contact with polyethylene glycol, particularly under moist conditions
structure (smiles),measurement,setting,value
"Cc1cc2c(s1)Nc1ccccc1N=C2N1CCN(C)CC1 [Form II, 2-methyl-4-(4-methyl-1-piperazinyl)-10H-thieno[2,3-b][1,5]benzodiazepine]",conversion to other polymorphic forms,[1],can be converted to less desirable polymorphic forms
"Cc1cc2c(s1)Nc1ccccc1N=C2N1CCN(C)CC1 [Radiolabelled Form II, 2-methyl-4-(4-methyl-1-piperazinyl)-10H-thieno-[2,3-b][1,5]benzodiazepine]",detection in saliva,[2],can be detected in the saliva
"Cc1cc2c(s1)Nc1ccccc1N=C2N1CCN(C)CC1 [olanzapine, 2-methyl-4-(4-methyl-1-piperazinyl)-10H-thieno[2,3-b][1,5] benzodiazepine]",discoloration on polyethylene glycol contact,[3],produces undesired discoloration
